Measurements as given in US7022667B2, “O-derivatized nocathiacin derivatives” (Bristol-Myers Squibb Company, priority 2002, dated 2006).
Values after ≈ are worked out from the molar mass of the structure shown.

Columns and labels:
Assay in all cases: MIC, broth micro dilution assay (NCCLS)
Format in all cases: cell-based
[1] = tested on: Streptococcus pneumoniae A28272; conditions: 50% Mueller-Hinton medium and 50% Todd Hewitt medium, 35° C., 18 hours
[2] = tested on: Staphylococcus aureus A15090; conditions: Mueller-Hinton medium, 35° C., 18 hours
How it was run: (§1)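 Broth microdilution in Mueller-Hinton medium, with a final inoculum of about 5×10^5 cfu/well. Plates incubated at 35 °C for 18 hours in ambient air. MIC = lowest drug concentration preventing visible growth.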

[3] = tested on: Enterococcus faecalis A20688; conditions: Mueller-Hinton medium, 35° C., 18 hours
How it was run: as §1

C=C(NC(=O)c1csc(-c2nc3c(cc2O)-c2nc(cs2)C(=O)NC(C(C)O)C(=O)NC(=C(C)OC)c2nc(cs2)C(=O)NC2c4nc(cs4)C(=O)NC(COC(=O)c4c5c6c(cccc6n4OCOCC[Si](C)(C)C)COC(=O)C(OC4CC(C)(O)C(N(C)C)C(C)O4)C2OC5)c2nc-3cs2)n1)C(N)=O (stereo not drawn) [Example 45]
MIC (μg/mL) Streptococcus pneumoniae A28272 [1]: 0.03 µg/mL (≈ 0.0191 µM) | MIC (μg/mL) Staphylococcus aureus A15090 [2]: 2.0 µg/mL (≈ 1.28 µM) | MIC (μg/mL) Enterococcus faecalis A20688 [3]: 1.0 µg/mL (≈ 0.638 µM)
